Results from patent US9884843B2 (Peloton Therapeutics, Inc., priority 2013, dated 2018).
Read-outs that look alike come from different tables or passages of the source.

How the values were obtained:
786-O-Hif-Luc cells = test: Luciferase Assay (HIF responsive element reporter); format: cell-based; conditions: read-out: Mean Luciferease EC50
Description: A pool of infected cells were then selected against 2 μg/mL of puromycin (P8833, Sigma) for 10 days followed by limited dilution to select single clones.
Each concentration was tested in triplicate. After about 24 hours, luciferase activity was determined using ONE-Glo Luciferase Assay Reagent (E6110, Promega) following the manufacturer's recommended procedure. EC50 were calculated by using Dotmatics software.

[1] = biological target: HIF-2α HIS TAG-PASB Domain (Homo sapiens, UniProt Q99814); test: biochemical; format: binding
Description: The term “scintillation proximity assay” (SPA) refers to a homogenous assay in which light is emitted when a radiolabeled ligand is brought into close proximity to a radiosensitive bead. The assay typically contains a target protein that contains a tag (e.g., His Tag, Glutathione S-transferase Tag). The tag on the protein is used to bind the target protein to the scintillation bead. Radiolabeled ligand (e.g., labeled with tritium) that binds to the protein is now in close proximity to the bead, and when the raidolabel (e.g., tritium) decays, the high energy particle hits the bead resulting in the emission of light that is detected by a detector, such as photomultiplier tube or CCD camera. When unlabeled ligands or compounds that bind to the protein are used in the assay, they displace the radiolabeled ligand, resulting in loss of signal.
The total assay volume was about 100 μL in the following configuration: 2-μL compound in DMSO, 88 μL buffer with protein and probe and 10 μL of SPA beads. […] To each compound, 88 μL of the buffer solution was then added. […] The percent inhibition was determined and IC50 values were calculated using the Dotmatics system based on the following equation: % inhibition=[(high control−sample)/(high control−low control)]×100.

[2] = 24 h, 786-O-Hif-Luc cells, about 24 hours
[3] = 786-O-Hif-Luc cells, about 24 hours
[4] = displacement of Compound 120 probe, mean, read-out: Mean SPA IC50
[5] = unnumbered compounds listed by structure and name, read-out: IC50 value in SPA

HIF-2α HIS TAG-PASB Domain, sequence (Q99814 whole entry, looked up, the tested form may be a part): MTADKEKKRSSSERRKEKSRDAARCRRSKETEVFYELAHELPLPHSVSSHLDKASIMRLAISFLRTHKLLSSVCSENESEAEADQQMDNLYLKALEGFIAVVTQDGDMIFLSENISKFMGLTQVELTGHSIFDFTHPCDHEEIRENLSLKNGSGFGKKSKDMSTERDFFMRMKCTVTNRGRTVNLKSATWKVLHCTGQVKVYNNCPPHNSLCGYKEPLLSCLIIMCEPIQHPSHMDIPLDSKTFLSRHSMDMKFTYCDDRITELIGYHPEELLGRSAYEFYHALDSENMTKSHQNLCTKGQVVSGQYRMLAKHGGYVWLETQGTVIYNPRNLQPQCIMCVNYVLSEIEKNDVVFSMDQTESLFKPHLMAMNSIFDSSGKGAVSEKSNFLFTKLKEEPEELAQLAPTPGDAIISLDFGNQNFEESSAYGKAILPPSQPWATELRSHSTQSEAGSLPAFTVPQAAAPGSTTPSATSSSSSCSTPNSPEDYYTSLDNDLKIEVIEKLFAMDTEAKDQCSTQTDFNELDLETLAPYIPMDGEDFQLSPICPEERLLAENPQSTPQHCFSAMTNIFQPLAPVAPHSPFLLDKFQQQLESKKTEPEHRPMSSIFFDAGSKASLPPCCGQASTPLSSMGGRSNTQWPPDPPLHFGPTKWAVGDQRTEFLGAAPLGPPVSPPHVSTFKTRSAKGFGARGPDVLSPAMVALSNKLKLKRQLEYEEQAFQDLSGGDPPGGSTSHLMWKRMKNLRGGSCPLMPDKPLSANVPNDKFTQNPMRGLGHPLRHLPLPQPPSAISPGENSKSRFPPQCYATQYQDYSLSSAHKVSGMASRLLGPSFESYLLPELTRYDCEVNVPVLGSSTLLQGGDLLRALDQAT

O=S1(=O)CC(O)c2c1ccc(Oc1cc(F)cc(Cl)c1)c2Br (stereo not drawn) [Compound 6, 4-Bromo-5-(3-chloro-5-fluorophenoxy)-3-hydroxy-2,3-dihydrobenzo[b]thiophene 1,1-dioxide]
EC50 (786-O-Hif-Luc cells; 24 h): 4850 nM

O=S1(=O)CC(O)c2c1ccc(Oc1cc(F)cc(Cl)c1)c2C(F)F (stereo not drawn) [Compound 15, 5-(3-Chloro-5-fluorophenoxy)-4-(difluoromethyl)-3-hydroxy-2,3-dihydrobenzo[b]thiophene 1,1-dioxide]
EC50 (786-O-Hif-Luc cells; [2]): 730 nM

O=S1(=O)c2ccc(Oc3cc(F)cc(Cl)c3)c(C(F)F)c2C(O)C1(F)F (stereo not drawn) [Compound 18, 5-(3-Chloro-5-fluorophenoxy)-4-(difluoromethyl)-2,2-difluoro-3-hydroxy-2,3-dihydrobenzo[b]thiophene 1,1-dioxide]
EC50 (786-O-Hif-Luc cells; [3]): 17 nM

O=S1(=O)CC(O)c2c1ccc(Oc1cc(F)cc(F)c1)c2C(F)F (stereo not drawn) [Compound 24, 4-(Difluoromethyl)-5-(3,5-difluorophenoxy)-3-hydroxy-2,3-dihydrobenzo[b]thiophene 1,1-dioxide]
EC50 (786-O-Hif-Luc cells; [2]): 720 nM

N#Cc1cc(F)cc(Oc2ccc3c(c2C(F)F)C(O)C(F)(F)S3(=O)=O)c1 (stereo not drawn) [Compound 29, 3-((4-(Difluoromethyl)-2,2-difluoro-3-hydroxy-1,1-dioxido-2,3-dihydrobenzo[b]thiophen-5-yl)oxy)-5-fluorobenzonitrile]
EC50 (786-O-Hif-Luc cells; [3]): 4 nM

NC1c2c(ccc(Oc3cc(F)cc(F)c3)c2Br)S(=O)(=O)C1(F)F (stereo not drawn) [Compound 30, 3-Amino-4-bromo-5-(3,5-difluorophenoxy)-2,2-difluoro-2,3-dihydrobenzo[b]thiophene 1,1-dioxide]
EC50 (786-O-Hif-Luc cells; [3]): 1700 nM | IC50 [1, 4]: < 5 nM

N=S1(=O)c2ccc(Oc3cc(F)cc(F)c3)c(Br)c2C(O)C1(F)F (stereo not drawn) [Compound 31, 4-Bromo-5-(3,5-difluorophenoxy)-2,2-difluoro-3-hydroxy-1-imino-2,3-dihydro-1H-1λ^4-benzo[b]thiophene 1-oxide]
EC50 (786-O-Hif-Luc cells; [2]): 540 nM | IC50 [1, 4]: 4140 nM

N=S1(=O)c2ccc(Oc3cc(F)cc(F)c3)c(Br)c2C(O)C1(F)F (stereo not drawn) [Compound 32, 4-bromo-5-(3,5-difluorophenoxy)-2,2-difluoro-3-hydroxy-1-imino-2,3-dihydro-1H-1λ^4-benzo[b]thiophene 1-oxide]
EC50 (786-O-Hif-Luc cells; [3]): 290 nM

N#Cc1cc(F)cc(Oc2ccc3c(c2C(F)F)[C@H](O)C(F)(F)S3(=O)=O)c1 [Compound 34, (S)-3-((4-(Difluoromethyl)-2,2-difluoro-3-hydroxy-1,1-dioxido-2,3-dihydrobenzo[b]thiophen-5-yl)oxy)-5-fluorobenzonitrile]
EC50 (786-O-Hif-Luc cells; 24 h): 20 nM

[2H]C1(O)c2c(ccc(Oc3cc(F)cc(C#N)c3)c2C(F)F)S(=O)(=O)C1(F)F (stereo not drawn) [Compound 40, 3-((4-(Difluoromethyl)-2,2-difluoro-3-hydroxy-1,1-dioxido-2,3-dihydrobenzo[b]thiophen-5-yl-3-d)oxy)-5-fluorobenzonitrile]
EC50 (786-O-Hif-Luc cells; [3]): 12 nM

N#Cc1cc(F)cc(Oc2ccc3c(c2C(F)F)[C@@H](N)C(F)(F)S3(=O)=O)c1 [Compound 41, (R)-3-((3-Amino-4-(difluoromethyl)-2,2-difluoro-1,1-dioxido-2,3-dihydrobenzo[b]thiophen-5-yl)oxy)-5-fluorobenzonitrile]
EC50 (786-O-Hif-Luc cells; [3]): 140 nM

N#Cc1c(Oc2cc(F)cc(F)c2)ccc2c1C(O)C(F)S2(=O)=O (stereo not drawn) [Compound 44, 5-(3,5-Difluorophenoxy)-2-fluoro-3-hydroxy-2,3-dihydrobenzo[b]thiophene-4-carbonitrile 1,1-dioxide]
EC50 (786-O-Hif-Luc cells; [2]): 790 nM

O=S1(=O)c2ccc(Oc3cc(F)cc(Cl)c3)c(Br)c2[C@H](O)C1(F)F [Compound 59, (3S)-4-Bromo-5-(3-chloro-5-fluoro-phenoxy)-2,2-difluoro-1,1-dioxo-3H-benzothiophen-3-ol]
EC50 (786-O-Hif-Luc cells; [3]): 170 nM | IC50 [1, 4]: 60 nM

N#Cc1c(Oc2cc(F)cc(F)c2)ccc2c1[C@@H](O)CS2(=O)=O [Compound 68, (R)-5-(3,5-difluorophenoxy)-3-hydroxy-2,3-dihydrobenzo[b]thiophene-4-carbonitrile 1,1-dioxide]
EC50 (786-O-Hif-Luc cells; [2]): 370 nM | IC50 [1]: 125 nM

N#Cc1c(Oc2cccc(F)c2)ccc2c1[C@@H](O)CS2(=O)=O [Compound 76, (R)-5-(3-fluorophenoxy)-3-hydroxy-2,3-dihydrobenzo[b]thiophene-4-carbonitrile 1,1-dioxide]
EC50 (786-O-Hif-Luc cells; [2]): 490 nM | IC50 [1, 4]: 750 nM

COc1cc(F)cc(Oc2ccc3c(c2Br)[C@@H](O)C(F)(F)S3(=O)=O)c1 [Compound 80, (R)-4-Bromo-2,2-difluoro-5-(3-fluoro-5-methoxyphenoxy)-3-hydroxy-2,3-dihydrobenzo[b]thiophene 1,1-dioxide]
EC50 (786-O-Hif-Luc cells; [2]): 410 nM

N#Cc1cccc(Oc2ccc3c(c2Br)[C@@H](O)C(F)(F)S3(=O)=O)c1 [Compound 84, (R)-3-((4-bromo-2,2-difluoro-3-hydroxy-1,1-dioxido-2,3-dihydrobenzo[b]thiophen-5-yl)oxy)benzonitrile]
EC50 (786-O-Hif-Luc cells; [2]): 33 nM

N#Cc1cc(F)cc(Oc2ccc3c(c2F)C(O)C(F)(F)S3(=O)=O)c1 (stereo not drawn) [Compound 88, 3-Fluoro-5-((2,2,4-trifluoro-3-hydroxy-1,1-dioxido-2,3-dihydrobenzo[b]thiophen-5-yl)oxy)benzonitrile]
EC50 (786-O-Hif-Luc cells; [2]): 880 nM

N#Cc1cc(Oc2ccc3c(c2C(F)F)[C@@H](O)C(F)(F)S3(=O)=O)ccc1F [Compound 91, (R)-5-((4-(Difluoromethyl)-2,2-difluoro-3-hydroxy-1,1-dioxido-2,3-dihydrobenzo[b]thiophen-5-yl)oxy)-2-fluorobenzonitrile]
EC50 (786-O-Hif-Luc cells; [2]): 310 nM

O=S1(=O)c2ccc(Oc3cccc4cn[nH]c34)c(C(F)F)c2C(O)C1(F)F (stereo not drawn) [Compound 95, 5-((1H-Indazol-7-yl)oxy)-4-(difluoromethyl)-2,2-difluoro-3-hydroxy-2,3-dihydrobenzo[b]thiophene 1,1-dioxide]
EC50 (786-O-Hif-Luc cells; [2]): 6890 nM

N#Cc1c(Oc2cc(F)cc(F)c2)ccc2c1C(O)(C(F)(F)F)CS2(=O)=O (stereo not drawn) [Compound 102, 5-(3,5-Difluorophenoxy)-3-hydroxy-3-(trifluoromethyl)-2,3-dihydrobenzo[b]thiophene-4-carbonitrile 1,1-dioxide]
IC50 [1, 4]: 4600 nM

N#Cc1cc(F)cc(Oc2ccc3c(c2C#N)C(O)(C(F)(F)F)CS3(=O)=O)c1 (stereo not drawn) [Compound 104, 5-(3-Cyano-5-fluorophenoxy)-3-hydroxy-3-(trifluoromethyl)-2,3-dihydrobenzo[b]thiophene-4-carbonitrile 1,1-dioxide]
IC50 [1, 4]: 6300 nM

CC1(O)c2c(ccc(Oc3cc(F)cc(C#N)c3)c2C#N)S(=O)(=O)C1(F)F (stereo not drawn) [Compound 105, 5-(3-Cyano-5-fluorophenoxy)-2,2-difluoro-3-hydroxy-3-methyl-2,3-dihydrobenzo[b]thiophene-4-carbonitrile 1,1-dioxide]
EC50 (786-O-Hif-Luc cells; [2]): 48 nM

N#CC1(COc2ccc3c(c2C(F)F)C(O)C(F)(F)S3(=O)=O)CC1 (stereo not drawn) [Compound 109, 1-(((4-(difluoromethyl)-2,2-difluoro-3-hydroxy-1,1-dioxido-2,3-dihydrobenzo[b]thiophen-5-yl)oxy)methyl)cyclopropane-1-carbonitrile]
EC50 (786-O-Hif-Luc cells; [2]): 6700 nM

CC(C)Oc1ccc2c(c1C#N)C(C)(O)C(F)(F)S2(=O)=O (stereo not drawn) [Compound 110, 2,2-Difluoro-3-hydroxy-5-isopropoxy-3-methyl-2,3-dihydrobenzo[b]thiophene-4-carbonitrile 1,1-dioxide]
EC50 (786-O-Hif-Luc cells; [2]): 5400 nM

CC1(O)c2c(ccc(OCc3ccccc3)c2C#N)S(=O)(=O)C1(F)F (stereo not drawn) [Compound 113, 5-(Benzyloxy)-2,2-difluoro-3-hydroxy-3-methyl-2,3-dihydrobenzo[b]thiophene-4-carbonitrile 1,1-dioxide]
IC50 [1, 4]: 16700 nM

C=CC1(O)c2c(ccc(Oc3cc(F)cc(C#N)c3)c2C#N)S(=O)(=O)C1(F)F (stereo not drawn) [Compound 114, 5-(3-Cyano-5-fluorophenoxy)-2,2-difluoro-3-hydroxy-3-vinyl-2,3-dihydrobenzo[b]thiophene-4-carbonitrile 1,1-dioxide]
IC50 [1, 4]: > 100000 nM

CC1(O)c2c(ccc(OC3CC(F)(F)C3)c2C#N)S(=O)(=O)C1(F)F (stereo not drawn) [Compound 115, 5-(3,3-Difluorocyclobutoxy)-2,2-difluoro-3-hydroxy-3-methyl-2,3-dihydrobenzo[b]thiophene-4-carbonitrile 1,1-dioxide]
IC50 [1, 4]: 6700 nM

N[C@@H]1c2c(ccc(Oc3cc(F)cc(Br)c3)c2Br)S(=O)(=O)C1(F)F [Compound 116, (R)-3-Amino-4-bromo-5-(3-bromo-5-fluorophenoxy)-2,2-difluoro-2,3-dihydrobenzo[b]thiophene 1,1-dioxide]
EC50 (786-O-Hif-Luc cells; [2]): 800 nM

N=S1(=O)CC(O)c2c1ccc(Oc1cc(F)cc(F)c1)c2Br (stereo not drawn) [[4-bromo-5-(3,5-difluorophenoxy)-3-hydroxy-1-imino-2,3-dihydro-1λ^4-benzo[b]thiophene 1-oxide]
IC50 [1, 5]: > 100000 nM

N#CN=S1(=O)C[C@H](O)c2c1ccc(Oc1cc(F)cc(F)c1)c2Cl (stereo partly drawn) [[(3R)-4-chloro-5-(3,5-difluorophenoxy)-3-hydroxy-1-oxo-2,3-dihydrobenzothiophen-1-ylidene]cyanamide]
IC50 [1, 5]: 25000 to 100000 nM
